Measured values reported in PubChem BioAssay (NCI).
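Briefly, cells in 96-well plates were exposed to five compound concentrations for 48 h, and endpoints were estimated by linear interpolation. The concentration for full growth arrest is given as TGI.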

Tests used:
Assay in all cases: NCI tumour cell line growth inhibition, 48 h
[1] = system: T-47D breast
[2] = system: IGROV1 ovarian
[3] = system: HCT-15 colon
[4] = system: NCI-H522 lung
[5] = system: U251 CNS
[6] = system: CCRF-CEM leukemia
[7] = system: 786-0 renal
[8] = system: HOP-62 NSCLC
[9] = system: NCI-H460 lung
[10] = system: RXF 393 renal
[11] = system: PC-3 prostate
[12] = system: HL-60(TB) leukemia
[13] = system: SK-MEL-5 melanoma
[14] = system: COLO 205 colon
[15] = system: HS 578T breast
[16] = system: HOP-92 NSCLC
[17] = system: MCF7 breast
[18] = system: SK-OV-3 ovarian
[19] = system: SN12C renal
[20] = system: KM12 colon
[21] = system: TK-10 renal
[22] = system: DU-145 prostate
[23] = system: OVCAR-4 ovarian
[24] = system: HT29 colon
[25] = system: CAKI-1 renal
[26] = system: OVCAR-3 ovarian
[27] = system: MDA-MB-435
[28] = system: SNB-19 CNS
[29] = system: SF-295 CNS
[30] = system: UACC-257 melanoma
[31] = system: UO-31 renal
[32] = system: MOLT-4 leukemia
[33] = system: SW-620 colon
[34] = system: OVCAR-5 ovarian
[35] = system: A498 renal
[36] = system: K-562 leukemia
[37] = system: MDA-N
[38] = system: OVCAR-8 ovarian
[39] = system: SK-MEL-2 melanoma
[40] = system: EKVX NSCLC
[41] = system: HCT-116 colon
[42] = system: NCI-H226 lung
[43] = system: SK-MEL-28 melanoma
[44] = system: M14 melanoma
[45] = system: MDA-MB-231 breast
[46] = system: ACHN renal
[47] = system: A549 NSCLC
[48] = system: SF-268 CNS
[49] = system: BT-549 breast
[50] = system: NCI/ADR-RES ovarian
[51] = system: LOX IMVI melanoma
[52] = system: UACC-62 melanoma
[53] = system: SNB-75 CNS
[54] = system: NCI-H23 lung
[55] = system: MALME-3M melanoma
[56] = system: SF-539 CNS
[57] = system: SR leukemia
[58] = system: HCC-2998 colon
[59] = system: RPMI-8226 leukemia

## Cc1cc(C)c2c(=O)n(CN3CCC(C#N)(c4ccccc4)CC3)sc2n1
[1]
  TGI: > 100 µM
[2]
  TGI: > 100 µM
[3]
  TGI: > 100 µM
[4]
  TGI: 31.3 µM
[5]
  TGI: > 100 µM
[6]
  TGI: > 100 µM
[7]
  TGI: 52.6 µM
[8]
  TGI: > 100 µM
[9]
  TGI: > 100 µM
[10]
  TGI: 48 µM
[11]
  TGI: > 100 µM
[12]
  TGI: 49.7 µM
[13]
  TGI: > 100 µM
[14]
  TGI: > 100 µM
[15]
  TGI: > 100 µM
[16]
  TGI: > 100 µM
[17]
  TGI: > 100 µM
[18]
  TGI: > 100 µM
[19]
  TGI: > 100 µM
[20]
  TGI: > 100 µM
[21]
  TGI: 63.6 µM
[22]
  TGI: > 100 µM
[23]
  TGI: 88.8 µM
[24]
  TGI: > 100 µM
[25]
  TGI: > 100 µM
[26]
  TGI: > 100 µM
[27]
  TGI: 65.5 µM
[28]
  TGI: > 100 µM
[29]
  TGI: > 100 µM
[30]
  TGI: 44.6 µM
[31]
  TGI: 34.1 µM
[32]
  TGI: > 100 µM
[33]
  TGI: 67.7 µM
[34]
  TGI: 90.9 µM
[35]
  TGI: > 100 µM
[36]
  TGI: > 100 µM
[37]
  TGI: 80.3 µM
[38]
  TGI: 81.5 µM
[39]
  TGI: > 100 µM
[40]
  TGI: > 100 µM
[41]
  TGI: > 100 µM
[42]
  TGI: > 100 µM
[43]
  TGI: > 100 µM
[44]
  TGI: > 100 µM
[45]
  TGI: > 100 µM
[46]
  TGI: 44.1 µM
[47]
  TGI: > 100 µM
[48]
  TGI: > 100 µM
[49]
  TGI: > 100 µM
[50]
  TGI: > 100 µM
[51]
  TGI: 69.9 µM
[52]
  TGI: > 100 µM
[53]
  TGI: 76.1 µM
[54]
  TGI: > 100 µM
[55]
  TGI: 46.5 µM
[56]
  TGI: 98.3 µM
[57]
  TGI: > 100 µM

## CN(C)CCNc1ccc2c(=O)n(CCN(C)C)c(=O)n3c4ccccc4c(=O)c1c23
[1]
  TGI: 3.89 µM
[2]
  TGI: 0.982 µM
[4]
  TGI: 0.58 µM
[58]
  TGI: 0.473 µM
[5]
  TGI: 3.63 µM
[7]
  TGI: 1.35 µM
[8]
  TGI: 0.265 µM
[9]
  TGI: 0.364 µM
[59]
  TGI: 0.0616 µM
[10]
  TGI: 0.688 µM
[11]
  TGI: 7.09 µM
[12]
  TGI: 0.286 µM
[13]
  TGI: 0.163 µM
[14]
  TGI: 0.671 µM
[15]
  TGI: 3.65 µM
[16]
  TGI: 0.462 µM
[17]
  TGI: 1.78 µM
[18]
  TGI: 6.2 µM
[19]
  TGI: 0.294 µM
[20]
  TGI: 1.14 µM
[21]
  TGI: 4.31 µM
[22]
  TGI: 0.179 µM
[24]
  TGI: 1.68 µM
[25]
  TGI: 2.05 µM
[26]
  TGI: 2.81 µM
[27]
  TGI: 0.537 µM
[28]
  TGI: 7.12 µM
[29]
  TGI: 0.516 µM
[30]
  TGI: 1.62 µM
[31]
  TGI: 1.8 µM
[32]
  TGI: < 0.0201 µM
[33]
  TGI: 3.98 µM
[34]
  TGI: 5.03 µM
[35]
  TGI: 0.554 µM
[37]
  TGI: 0.71 µM
[38]
  TGI: 8.78 µM
[39]
  TGI: 1.7 µM
[40]
  TGI: 2.56 µM
[41]
  TGI: 0.615 µM
[42]
  TGI: 1.58 µM
[43]
  TGI: 5.26 µM
[44]
  TGI: 1.81 µM
[45]
  TGI: 0.682 µM
[47]
  TGI: > 40.3 µM
[48]
  TGI: 0.482 µM
[49]
  TGI: 5.7 µM
[50]
  TGI: 5.5 µM
[51]
  TGI: 1.48 µM
[53]
  TGI: 0.403 µM
[54]
  TGI: 0.565 µM
[55]
  TGI: 1.93 µM
[56]
  TGI: 0.272 µM
[57]
  TGI: 0.0298 µM

## COC1CC(C)(N)C(O)C(C)O1 (configuration not stated)
[1]
  TGI: > 100 µM
[2]
  TGI: > 100 µM
[3]
  TGI: > 100 µM
[4]
  TGI: > 100 µM
[58]
  TGI: > 100 µM
[5]
  TGI: > 100 µM
[6]
  TGI: > 100 µM
[7]
  TGI: > 100 µM
[8]
  TGI: > 100 µM
[9]
  TGI: > 100 µM
[59]
  TGI: > 100 µM
[10]
  TGI: > 100 µM
[11]
  TGI: > 100 µM
[12]
  TGI: > 100 µM
[13]
  TGI: > 100 µM
[14]
  TGI: > 100 µM
[15]
  TGI: > 100 µM
[16]
  TGI: > 100 µM
[17]
  TGI: > 100 µM
[18]
  TGI: > 100 µM
[19]
  TGI: > 100 µM
[20]
  TGI: > 100 µM
[21]
  TGI: > 100 µM
[22]
  TGI: > 100 µM
[24]
  TGI: > 100 µM
[25]
  TGI: > 100 µM
[26]
  TGI: > 100 µM
[27]
  TGI: > 100 µM
[28]
  TGI: > 100 µM
[29]
  TGI: > 100 µM
[30]
  TGI: > 100 µM
[31]
  TGI: > 100 µM
[32]
  TGI: > 100 µM
[33]
  TGI: > 100 µM
[35]
  TGI: > 100 µM
[36]
  TGI: > 100 µM
[37]
  TGI: > 100 µM
[38]
  TGI: > 100 µM
[39]
  TGI: > 100 µM
[40]
  TGI: > 100 µM
[41]
  TGI: > 100 µM
[42]
  TGI: > 100 µM
[43]
  TGI: > 100 µM
[44]
  TGI: > 100 µM
[45]
  TGI: > 100 µM
[46]
  TGI: > 100 µM
[47]
  TGI: > 100 µM
[48]
  TGI: > 100 µM
[49]
  TGI: > 100 µM
[50]
  TGI: > 100 µM
[51]
  TGI: > 100 µM
[52]
  TGI: > 100 µM
[53]
  TGI: > 100 µM
[54]
  TGI: > 100 µM
[55]
  TGI: > 100 µM
[56]
  TGI: > 100 µM
[57]
  TGI: > 100 µM
